The values that follow come from patent publication US6288091A, “Antiherpes virus compounds and methods for their preparation and use” (Boehringer Ingelheim Ltd., priority 1999, dated 2001).

Test [1] has as its target T1, HSV-1 helicase-primase (Human herpesvirus 1, UniProt P10189+P10236).
T1 construct: made in house; host or cells: Sf21 insect cells triply infected with recombinant baculoviruses (UL5, UL8, UL52)
The experiment in a line: HSV-1 DNA-dependent ATPase assay (inhibition of HSV-1 helicase-primase). It is filed as biochemical. A digest of the protocol: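 Holoenzyme (UL5/UL8/UL52) expressed in baculovirus-infected Sf21 cells and purified, used at 3 μg/mL with 4 mM ATP and 25 μM primed M13 ssDNA in HEPES pH 7.5, 5.5 mM MgCl2, 3.3% DMSO. Incubated 20 min at 34°. Released phosphate read by malachite green at 650 nm, and activity taken from net absorbance with versus without inhibitor.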

Test [2] relates to HSV-1 strain F or KOS. As to the kind of experiment: Inhibition of herpes simplex virus (HSV-1) replication in cell culture (BHK-21 cells, glycoprotein C ELISA). It is filed as cell-based. A digest of the protocol: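 BHK-21 clone 13 cells infected with HSV-1 F or KOS at MOI 0.05 PFU/cell for 1 h at 37°, washed, then treated with compound in α-MEM/2% FBS for 24 h. Late glycoprotein C quantified by ELISA (mAb C11, HRP/OPD, 450 nm); EC50 from % inhibition.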
A general note: An ELISA detects its analyte on a solid surface through an enzyme-linked reagent.

Test [3] has as its system HCMV (strain AD169). The experiment in a line: Inhibition of HCMV replication, plaque reduction assay (PRA, Hs-68 cells). It is filed as cell-based, Human Cytomegalovirus (HCMV). Particulars: read-out: PRA CMV EC50. The protocol: (§1) C) Inhibition of Human Cytomegalovirus (HCMV) Replication
(§2) The effect of compounds on the replication of HCMV has been measured by using an ELISA-based assay (ELISA) and a plaque reduction assay (PRA).
Hs-68 cells (ATCC # CRL 1635) were seeded in 12-well plates at 83,000 cells/well in 1 mL of DMEM medium (Gibco Canada Inc.) supplemented with 10% fetal bovine serum (FBS, Gibco Canada Inc.). The plates were incubated for 3 days at 37° to allow the cells to reach 80-90% confluency prior to the assay.
The medium was removed from the cells by aspiration. The cells were then infected with approximately 50 PFU of HCMV (strain AD169, ATCC VR-538) in DMEM medium supplemented with 5% inactivated FBS (assay medium). The virus was allowed to adsorb to cells for 2 h at 37°. Following viral adsorption, the medium was removed from the wells by aspiration. The cells were then incubated with or without 1 mL of appropriate concentrations of test reagent in assay medium. After 4 days of incubation at 37°, the medium was exchanged with fresh medium containing test compound and 4 days later the cells were fixed with 1% aqueous formaldehyde and stained with a 2% crystal violet solution in 20% ethanol in water. Microscopic plaques were counted using a stereomicroscope. Drug effects were calculated as a percent reduction in the number of plaques in the presence of each drug concentration compared to the number observed in the absence of drug. Ganciclovir was used as a positive control in all experiments.
The EC50 values obtained according to this assay for certain thiazolyl derivatives of this invention are listed in the following tables under the heading PRA CMV.
On the technique in general: In a plaque reduction assay, fewer plaques than in the control indicate reduced infectivity or spread.

The subject of test [4] is HCMV (strain AD169). As to the kind of experiment: Inhibition of HCMV replication, ELISA assay (Hs-68 cells). In kind it is cell-based, Human Cytomegalovirus (HCMV). As to conditions: read-out: ELISA CMV EC50. The protocol:
as §1, §2
Hs-68 cells (ATCC # CRL 1635) were seeded in 96 well microtiter plates at 10,000 cells/well in 100 μL of DMEM medium (Gibco Canada Inc.) supplemented with 10% fetal bovine serum (FBS, Gibco Canada Inc.). The plates were incubated for 3 days at 37° to allow the cells to reach 80-90% confluency prior to the assay.
The medium was removed from wells by aspiration. The cells then were infected at a multiplicity of infection (MOI) of 0.01 PFU/cell with 50 μL of HCMV (strain AD169, ATCC VR-538) in DMEM medium supplemented with 5% heat inactivated FBS (assay medium). The virus was allowed to adsorb to cells for 2 h at 37°. Following viral adsorption, the medium was removed from the wells by aspiration. The cells were washed twice with 200 μL of assay medium to remove unabsorbed virus. The cells were then incubated with or without 100 μL of appropriate concentrations of test reagent in assay medium. After 8 days of incubation at 37°, the extent of viral replication was determined by an ELISA assay which detects the late structural protein p28 of HCMV.
Eight days after infection, the medium was aspirated from the wells. Non-specific binding sites were blocked by adding 200 μL of phosphate buffered saline containing 1% (w/v) bovine serum albumin (blocking buffer) to each well and incubating the plates for 30 min at room temperature. After removal of the blocking buffer by aspiration, the cells were fixed with 100 μL of cold ethanol-acetone solution (95:5) per well. The plates were placed at -20° for 30 min. The plates were washed 4 times with phosphate buffered saline containing 0.05% (v/v) polyoxyethylene sorbitan monolaurate (Tween®). Thereafter, 100 μL of mAb UL99 (Advanced Biotechnologies Inc., #13-130-100) recognizing HCMV protein p28 was added to each wells and plates were incubated for 2 h at room temperature. The plates were washed four times with 200 μL of the above-noted phosphate buffered saline/Tween-20® solution. The cells were then incubated with 100 μL of sheep anti-mouse IgGγ horseradish peroxidase conjugated for 2 h at room temperature. The plates were then washed four times with 200 μL of above-noted phosphate buffered saline/Tween-20® solution. Thereafter, 100 μL of ortho phenylenediamine dihydrochloride (OPD, Gibco Canada Inc.) solution was added to each well and the plates were agitated on a microplate shaker for 30 min in the dark. Color development was monitored at 450 nm using a microplate spectrophotometer.
The SAS program was used to calculate the % inhibition of viral replication and to generate EC50 values.
The EC50 values obtained according to this assay method for certain thiazolylphenyl derivatives of this invention are listed in the following tables under the heading ELISA CMV.

[5] abbreviates: Human alphaherpesvirus 1, BHK-21, Group 1 Table 1 entries.
The mark [6] stands for this setting: Human betaherpesvirus 5, AD169, Hs68, Group 1 Table 1 entries.

Bounds are passed on as bounds.

T1 sequence (P10192 whole entry): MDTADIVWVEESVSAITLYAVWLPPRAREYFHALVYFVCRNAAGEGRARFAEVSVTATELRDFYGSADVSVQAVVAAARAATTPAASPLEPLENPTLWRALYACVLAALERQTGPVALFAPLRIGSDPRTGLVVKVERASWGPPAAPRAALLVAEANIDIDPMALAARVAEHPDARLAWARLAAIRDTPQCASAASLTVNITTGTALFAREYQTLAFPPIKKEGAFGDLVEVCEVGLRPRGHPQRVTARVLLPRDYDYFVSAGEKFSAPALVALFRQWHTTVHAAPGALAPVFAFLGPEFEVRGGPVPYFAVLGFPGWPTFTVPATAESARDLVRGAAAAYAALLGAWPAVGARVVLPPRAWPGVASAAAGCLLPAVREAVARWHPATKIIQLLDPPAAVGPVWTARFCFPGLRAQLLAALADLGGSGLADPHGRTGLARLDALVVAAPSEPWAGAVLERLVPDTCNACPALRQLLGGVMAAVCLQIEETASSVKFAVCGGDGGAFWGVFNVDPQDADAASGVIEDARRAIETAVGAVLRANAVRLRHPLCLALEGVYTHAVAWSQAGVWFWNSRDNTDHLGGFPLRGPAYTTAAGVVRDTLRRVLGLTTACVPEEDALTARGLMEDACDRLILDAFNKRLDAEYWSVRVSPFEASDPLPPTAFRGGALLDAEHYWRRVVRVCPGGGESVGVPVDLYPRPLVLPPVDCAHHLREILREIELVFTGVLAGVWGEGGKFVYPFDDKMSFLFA
T1 sequence (P10236 whole entry): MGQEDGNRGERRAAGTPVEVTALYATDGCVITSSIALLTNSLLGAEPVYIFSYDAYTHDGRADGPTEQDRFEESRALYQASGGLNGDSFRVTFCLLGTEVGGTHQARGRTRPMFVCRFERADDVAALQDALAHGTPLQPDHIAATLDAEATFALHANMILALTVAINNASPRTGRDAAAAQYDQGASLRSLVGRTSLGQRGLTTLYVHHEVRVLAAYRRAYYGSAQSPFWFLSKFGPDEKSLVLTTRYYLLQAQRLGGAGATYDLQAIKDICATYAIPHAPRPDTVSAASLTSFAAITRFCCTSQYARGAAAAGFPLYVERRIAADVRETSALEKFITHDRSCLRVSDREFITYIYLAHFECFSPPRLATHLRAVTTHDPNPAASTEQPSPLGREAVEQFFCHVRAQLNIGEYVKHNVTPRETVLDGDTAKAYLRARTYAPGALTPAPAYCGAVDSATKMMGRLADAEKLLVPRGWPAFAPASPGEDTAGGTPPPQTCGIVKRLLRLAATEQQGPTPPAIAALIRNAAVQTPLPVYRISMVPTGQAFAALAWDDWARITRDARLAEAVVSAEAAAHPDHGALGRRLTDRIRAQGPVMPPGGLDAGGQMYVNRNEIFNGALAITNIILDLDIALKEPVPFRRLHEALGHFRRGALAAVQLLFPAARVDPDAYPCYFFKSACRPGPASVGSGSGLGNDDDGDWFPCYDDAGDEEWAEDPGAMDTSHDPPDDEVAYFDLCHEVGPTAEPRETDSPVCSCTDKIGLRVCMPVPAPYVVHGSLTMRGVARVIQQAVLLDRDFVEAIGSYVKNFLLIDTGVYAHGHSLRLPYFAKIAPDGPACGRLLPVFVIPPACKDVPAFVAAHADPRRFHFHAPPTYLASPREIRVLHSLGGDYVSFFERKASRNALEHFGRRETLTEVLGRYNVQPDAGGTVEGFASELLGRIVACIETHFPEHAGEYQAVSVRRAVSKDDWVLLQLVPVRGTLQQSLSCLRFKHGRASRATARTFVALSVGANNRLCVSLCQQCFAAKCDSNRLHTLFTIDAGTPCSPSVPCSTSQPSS
T1 sequence (P10189 whole entry): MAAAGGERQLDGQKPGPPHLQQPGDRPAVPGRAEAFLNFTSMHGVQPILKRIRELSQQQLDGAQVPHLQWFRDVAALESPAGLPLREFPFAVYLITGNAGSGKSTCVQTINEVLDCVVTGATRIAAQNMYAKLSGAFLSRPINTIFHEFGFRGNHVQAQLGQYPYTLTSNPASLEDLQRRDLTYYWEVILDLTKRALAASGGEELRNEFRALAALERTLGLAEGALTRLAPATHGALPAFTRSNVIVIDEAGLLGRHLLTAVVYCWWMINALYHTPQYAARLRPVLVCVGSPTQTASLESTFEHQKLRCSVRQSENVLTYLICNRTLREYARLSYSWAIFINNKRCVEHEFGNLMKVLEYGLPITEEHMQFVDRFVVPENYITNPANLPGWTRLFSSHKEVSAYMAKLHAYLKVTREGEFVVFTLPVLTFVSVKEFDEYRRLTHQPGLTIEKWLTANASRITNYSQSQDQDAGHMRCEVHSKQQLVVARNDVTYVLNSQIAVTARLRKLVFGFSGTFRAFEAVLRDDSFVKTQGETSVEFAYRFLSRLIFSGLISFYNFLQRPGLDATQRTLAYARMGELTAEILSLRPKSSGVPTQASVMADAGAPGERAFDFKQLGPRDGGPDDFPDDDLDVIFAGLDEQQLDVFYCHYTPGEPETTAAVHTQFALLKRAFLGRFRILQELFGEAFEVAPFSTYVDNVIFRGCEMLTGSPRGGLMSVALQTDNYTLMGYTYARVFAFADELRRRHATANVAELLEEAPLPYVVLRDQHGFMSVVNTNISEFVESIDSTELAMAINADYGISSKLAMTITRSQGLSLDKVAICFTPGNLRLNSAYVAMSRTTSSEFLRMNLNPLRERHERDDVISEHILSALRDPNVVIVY

Usually IC50 stands for the point on the concentration scale where inhibition reaches its midpoint. A high value points to lower potency. Broadly, the EC50 is the concentration at which the effect is half-maximal. `Nc1nc(-c2ccc(NC(=O)CNC(=O)c3ccncc3)cc2)cs1` [Example 21] had an IC50 in test [1] (Group 1 Table 1 entries) of 4.2 µM. Moreover, the EC50 in test [2] (setting [5]) is 1.3 µM; in test [3] (setting [6]) it was over 71 µM.
For `C[C@@H](c1ccccc1)N(C)CCC(=O)Nc1ccc(-c2csc(N)n2)cc1` [Example 28], the EC50 is 2 µM in test [2] (Human alphaherpesvirus 1, BHK-21, Group 1 Table 2 entries) and 18 µM in test [4] (Human betaherpesvirus 5, AD169, Hs68, Group 1 Table 2 entries).
Take `Nc1nc(-c2ccc(NC(=O)N[C@H](CO)Cc3ccccc3)cc2)cs1` [Example 28]: in test [1] (Group 2 Table 1 entries), the IC50 amounted to 6.6 µM. The EC50 in test [3] (Human betaherpesvirus 5, AD169, Hs68, Group 2 Table 1 entries) stood at 30 µM.
Compound `Nc1nc(-c2ccc(NC(=O)CN(Cc3ccccc3)C(=O)C3CCCCCC3)cc2)cs1` [Example 37] showed an IC50 in test [1] (Group 1 Table 1 entries) of 0.029 µM. The EC50 in test [2] (setting [5]) was 0.002 µM; in test [3] (setting [6]), over 74 µM.
In test [1] (Group 1 Table 1 entries), `Nc1nc(-c2ccc(NC(=O)CN(Cc3ccc(Cl)cc3)C(=O)C3CCCCC3)cc2)cs1` [Example 45] yielded an IC50 of 0.05 µM. Besides, the EC50 worked out at 0.001 µM in test [2] (setting [5]) and 5.5 µM in test [3] (setting [6]).
Compound `NCC(=O)N(CC(=O)Nc1ccc(-c2csc(N)n2)cc1)Cc1ccccc1` [Example 71] gave an IC50 in test [1] (Group 1 Table 1 entries) of 30 µM. The EC50 in test [3] (setting [6]) is over 32 µM.
For the compound `C[C@@H](C1CCCCC1)N(CC(=O)Nc1ccc(-c2csc(N)n2)cc1)C(=O)OC(C)(C)C` [Example 108], the EC50 is 0.39 µM in test [2] (setting [5]) and 6.8 µM in test [4] (setting [6]).
In the same order, the values of `CC(C)CN(CC(=O)Nc1ccc(-c2csc(N)n2)cc1)C(=O)OC(C)(C)C` [Example 112] are 1.2 µM and 3.2 µM.
Compound `Nc1nc(CC(=O)N(CC(=O)Nc2ccc(-c3csc(N)n3)cc2)Cc2ccccc2)cs1` [Example 119] gave an IC50 in test [1] (Group 1 Table 1 entries) of 0.68 µM. For the same compound, the EC50 in test [4] (setting [6]) worked out at 25 µM.
As for `Nc1nc(-c2ccc(NC(=O)CN(Cc3ccccc3)C(=O)COc3ccccc3)cc2)cs1` [Example 120], in test [1] (Group 1 Table 1 entries), the midpoint of inhibition, the IC50, lay at 0.54 µM. For the same compound, the EC50 in test [3] (setting [6]) turned out to be 15 µM.
In turn, `CN1CCC(C(=O)N(CC(=O)Nc2ccc(-c3csc(N)n3)cc2)Cc2ccccc2)CC1` [Example 123] returned an IC50 in test [1] (Group 1 Table 1 entries) of over 50 µM. The EC50 in test [4] (setting [6]) was 41 µM.
In the case of `Nc1nc(-c2ccc(NC(=O)CN(CCc3ccccc3)C(=O)c3ccncc3)cc2)cs1` [Example 125], in test [1] (Group 1 Table 1 entries), the concentration for half-maximal inhibition (IC50) worked out at 0.159 µM. Also, the EC50 in test [3] (setting [6]) is 80 µM.
In the same order, the values of `C[C@@H](c1ccccc1)N(CC(=O)Nc1ccc(-c2csc(N)n2)cc1)C(=O)c1cccnc1` [Example 134] are 0.26 µM and 18 µM.
The matching figures for `C[C@H](c1ccccc1)N(CC(=O)Nc1ccc(-c2csc(N)n2)cc1)C(=O)Cc1ccccn1` [Example 136]: 4.2 µM and 31 µM.
In the same order, the values of `C[C@H](c1ccccc1)N(CC(=O)Nc1ccc(-c2csc(N)n2)cc1)C(=O)c1ccncc1` [Example 137] are 0.98 µM and 49 µM.
